Data on four compounds can be found in ChEMBL document CHEMBL4334537 (ACS Med Chem Lett, 2020).

Series [1] is described as follows: Chemical stability of fluorescent labelled compound in PBS buffer at pH 7.4 and 22 degree C measured after 48 hrs by RP-HPLC analysis. The class given is physicochemical. The following applies: pH 7.4, 48 h.
The nature of series [2]: Chemical stability of fluorescent labelled compound in PBS buffer assessed as compound decomposition at pH 7.4 and 22 degree C after > 24 hrs by RP-HPLC analysis. The class given is physicochemical. The settings on record: pH 7.4, 24 h.

SMILES strings stand for the structures.

Take `CC[C@H](C)[C@H](NC(=O)[C@H](Cc1ccc(O)cc1)NC(=O)[C@@H]1CCCN1C(=O)[C@H](CCCNC(=N)N)NC(=O)[C@@H](N)CCCNC(=N)NC(=O)NCCCCNC(=O)CCCCCN1/C(=C/C=C/C=C/C2=[N+](CCCCS(=O)(=O)[O-])c3ccccc3C2(C)C)C(C)(C)c2cc(S(=O)(=O)O)ccc21)C(=O)N[C@@H](CC(C)C)C(=O)O.O=C(O)C(F)(F)F.O=C(O)C(F)(F)F`: the Stability entry in series [1] is recorded as “Stable”.

Take `CC[C@H](C)[C@H](NC(=O)[C@H](Cc1ccc(O)cc1)NC(=O)[C@@H]1CCCN1C(=O)[C@H](CCCNC(=N)N)NC(=O)[C@@H](N)CCCNC(=N)NC(=O)NCCOCCOCC[n+]1c(C)cc(/C=C/C=C/c2ccc(N(C)C)cc2)cc1C)C(=O)N[C@@H](CC(C)C)C(=O)O.O=C(O)C(F)(F)F.O=C(O)C(F)(F)F.O=C(O)C(F)(F)F.O=C([O-])C(F)(F)F`: the Stability result in series [2] was “Unstable”.

In the case of `CC[C@H](C)[C@H](NC(=O)[C@H](Cc1ccc(O)cc1)NC(=O)[C@@H]1CCCN1C(=O)[C@H](CCCNC(=N)NC(=O)NCCOCCOCCNC(=O)CCCCCN1/C(=C/C=C/C=C/C2=[N+](CCCCS(=O)(=O)[O-])c3ccccc3C2(C)C)C(C)(C)c2cc(S(=O)(=O)O)ccc21)NC(=O)[C@@H](N)CCCNC(=N)N)C(=O)N[C@@H](CC(C)C)C(=O)O.O=C(O)C(F)(F)F.O=C(O)C(F)(F)F`, the Stability result in series [1] was “Stable”.

For `CC[C@H](C)[C@H](NC(=O)[C@H](Cc1ccc(O)cc1)NC(=O)[C@@H]1CCCN1C(=O)[C@H](CCCNC(=N)N)NC(=O)[C@@H](N)CCCNC(=N)NC(=O)NCCOCCOCCNC(=O)CCCCCN1/C(=C/C=C/C=C/C2=[N+](CCCCS(=O)(=O)[O-])c3ccccc3C2(C)C)C(C)(C)c2ccccc21)C(=O)N[C@@H](CC(C)C)C(=O)O.O=C(O)C(F)(F)F.O=C(O)C(F)(F)F.O=C(O)C(F)(F)F`, the Stability result in series [1] is listed as “Stable”.
